For series [1], the system named is Salmonella typhimurium. The experiment in a line: Test for mutagenic activity in Salmonella typhimurium strains. In kind it is cell-based. The settings on record: 3-1000 mg/plate (TTA), 2-5000 mg/plate (TSA). The source says: (§1) Tests for mutagenic activity have been performed by Covance Laboratories Limited, England. […] Furthermore, TTA was not mutagenic when tested in mouse lymphoma cells […] L5178Y.

Series [2] has as its system Escherichia coli. The experiment in a line: Test for mutagenic activity in Escherichia coli strains. Type of series: cell-based. The settings on record: 3-1000 mg/plate (TTA), 2-5000 mg/plate (TSA).
From the text: as §1

The subject of series [3] is mouse lymphoma cells, L5178Y. The series is described as follows: Mutagenicity test in mouse lymphoma cells L5178Y. In kind it is cell-based. The settings on record: concentration 2.5-50 mg/ml.
From the text: as §1

Series [4] can be described thus: Lipid lowering effect in normal Wistar rats (Example 4). In kind it is in vivo. The settings on record: gavage once daily for 7 days; dose mg/day/kg body weight: TSA 15, EPA 1500, TTA 150.
Method: Phospholipids were measured by the enzymatic method of bioMérieux, Marcy-l{grave over ( )}Etoile, France, Triacylglycerol by the Technicon Method no. SA4-0324L90, USA and Cholesterol by the Technicon Method no. SA4-0305L90, USA.
Male Wistar rats, weighing 180-200 g at the start of the experiment, were housed individually in metal wire cages in a room maintained at 12 h light-dark cycles and a constant temperature of 20±3° C. The animals were acclimatised for one week under these conditions before the start of the experiments.
TTA, TSA and eicosapentaenoic acid (EPA) were suspended in 0.5% (w/v) carboxymethyl cellulose (CMC). Six animals were used for each treatment, and a 0.5% CMC solution was administrated to the rats as control. After administration of the test compound, the rats were fasted for 12 hours and anaesthetised with haloethan. The EPA and the fatty acid derivatives were administered by gastric intubation (gavage) once daily for 7 days. Blood samples were collected by cardiac puncture, and lipid concentrations in plasma were determined as outlined in the method section.
For series [5], the system named is cultured Chinese hamster ovary cells. The series is described as follows: Chromosomal aberrations in cultured Chinese hamster ovary cells. The settings on record: doses tested 12-140 mg/ml.
The nature of series [6]: Hepatic levels of triacylglycerol (Example 17). In kind it is in vivo, Wistar rats. Particulars: fed 6 days, no prefeeding; TTA 150 mg/kg/day, TTP 300 mg/kg/day. The protocol:
Male Wistar rats had free access to water and rat maintenance chow. They were fed palmitic acid or fatty acid analogues suspended in 0.5% CMC for 6 days. In some experiments TTA or TTP were fed for 3 days before feeding both for 6 days. At the end of the experiment the rats were fasted overnight, killed, the liver removed and homogenized. Triacylglycerol was measured in the homogenate.

In series [7] the test system is mitochondrial β-oxidation. The series is described as follows: Effect of fatty acid analogues on mitochondrial β-oxidation in rat liver (Example 18). Type of series: in vivo. Particulars: [1-14C]-palmitoyl-L-carnitine as substrate.
Method: Freshly isolated livers from individual old Zucker rats, were homogenised in ice-cold sucrose buffer (0.25 M sucrose, 10 mM HEPES (pH 7.4) and 2 mM EDTA). Post-nuclear and mitochondrial fractions were prepared using preparative differential centrifugation according to DeDuve et al. (De Duve, C., et al., Biochem. J., 60, 604-617 1955.) Modifications, purity and yield were as described earlier (Garras, A., et al., Biochim. Biophys. Acta, 1255, 154-160 1995.). Acid soluble products were measured in post-nuclear and mitochondrial enriched fractions, using [1-^14C]-palmitoyl-CoA and [1-^14C]-palmitoyl-L-carnitine (Radio-chemical Centre, Amersham, England) as substrates as described earlier (Willumsen, N., et al., J. Lipid Res., 34, 13-22 1993. Carnitine palmitoyltransferase-I and -II activities were measured in the post-nuclear and mitochondrial fractions essentially as described by Bremer (Bremer, J., Biochim. Biophys. Acta, 665, 628-631 1981.) and 3-hydroxy-3-methylglutharyl-CoA synthase was measured according to Clinkenbeard et al. (Clinkenbeard, K. D., et al., J. Biol. Chem, 250, 3108-3116 1975.) in the mitochondrial fractions.
Obese Zucker (fa/fa) rats were given a standard chow either with (n=6) or without (n=5) 0.15% TTA. Following 21 days of treatment, rats were killed by cervical dislocation and the livers were removed. […] Values are expressed as the mean±S.D.

The structures appear in SMILES notation.

For `CCCCCCCCCCCCCC[Se]CC(=O)O` [TSA, Tetradecylselenioacetic acid], the Induction of mutations entry in series [1] is reported as “did not induce mutations”. The Induction of mutations result in series [2] was “did not induce mutations”. In series [3], the Mutagenicity entry is reported as “not to be mutagenic”. Moreover, in series [4], the “Plasma lipids: cholesterol” value is on record as 20 % reduction of control and the “Plasma lipids: triglycerides” value is 25 % reduction of control. Besides, in series [5], the Chromosomal aberrations entry is “no aberrations were induced”.
In the case of `CCCCCCCCCCCCCCSCCC(=O)O` [reference compound], in series [6], the “Hepatic TG (triacylglycerol)” value turned out to be 95.4 ± 14.7 µmol/g.
In the case of `CCCCCCCCCCCCCCCC(=O)O` [Palm, palmitic acid], the “Mitochondrial β-oxidation activity” value in series [7] stood at 0.47 ± 0.06 nmol/min/mg protein.
In the case of `CC/C=C\C/C=C\C/C=C\C/C=C\C/C=C\CCCC(=O)O` [EPA, eicosapentaenoic acid, reference compound], in series [4], the “Plasma lipids: cholesterol” value is on record as 18 % reduction of control and the “Plasma lipids: triglycerides” value is reported as 20 % reduction of control.

Values taken from patent US6441036B1 (priority 1998, dated 2002).
